Literature values as cited in patent publication US6458386B1, “Medicaments based on polymers composed of methacrylamide-modified gelatin” (Innogenetics N.V., priority 1997, dated 2002).

How the values were obtained:
large cutaneous burns = conditions: children
[1] = tested on: full thickness macular holes; conditions: human eyes
chronic pressure ulcers = conditions: humans

Human Growth Hormone: hormone
wound healing of large cutaneous burns (large cutaneous burns): accelerate wound healing

Transforming Growth Factor-β
effect in treatment of full thickness macular holes [1]: beneficial effects

Platelet Derived Growth Factor
wound healing of chronic pressure ulcers (chronic pressure ulcers): wound healing stimulator
